Entries after “also recorded” stand apart in the source; their conditions may differ.
What was measured:
activated human T cell = assay: NanoString nCounter Human PanCancer Immune profiling of activated T cells (Example 6); assay type: cell-based; settings: RNA, T cells of 5 donors, 10 μM vs vehicle
Experimental: T cells were isolated from 5 individual blood donors and activated as described previously. RNA expression levels were determined by the NanoString nCounter Human PanCancer Immune profiling.

[1] = system: T cells isolated from mouse spleens; assay: Mouse T cell activation, anti-CD3 coated plates (Example 4); assay type: cell-based; settings: 10 mcM peptide, anti-CD3 0.1 mcg/mL, 48 hours
Experimental: 96-well culture plates were pre-coated with anti-CD3 (0.1 mcg/mL) in 200 mcL. The plates were incubated overnight at 4° C. The plates were washed with PBS three times before plating the cells (Balb/c splenocytes for T-cell isolation by EasySep™ #19851). The cells were plated at 100-200K/well in final volume of 200 mcL of AIM-V. Peptides (10mcM) or 2 mcg/mL anti-CD28 were added to the cells. The cells were incubated for 48 hours at 37° C.
The incubated cells were used for flow cytometry analysis. SG-3-0020 increased expression of T cell activation markers and proliferation of CD4 and CD8 T cells isolated from mouse spleens (FIG. 11A).
The supernatants were used for MSD analysis. SG-3-0020 increased secretion of effector cytokines by T cells isolated from mouse spleens. (FIG. 11B)

human T cells [2] = assay: Human T cell activation assay, anti-CD3 stimulated purified T cells (Example 2); assay type: cell-based
Experimental: PBMCs were obtained from 5 individual human donors. […] Furthermore, incubation of the T cells with SG-3-0020 increased secretion of IL-2 and IFN-γ (FIG. 6B). […] Such activation may enhance immune action against a tumor in vivo with or without a co-therapy.

human T cells [3] = assay: Activation markers and cytokine secretion with or without anti-CD3, or with CD3/CD28 activator, T cells (Example 5); assay type: cell-based
Experimental: (§1) Activation marker expression on T cells and PBMCs in the presence of peptides (10mcM) or anti-CD28 (10 mcg/mL) was determined after 48 hours of incubation, with or without 0.1 mcg/mL anti-CD3. The data were analyzed by flow cytometry (FIG. 13A-D).
Cytokine secretion on T cells in the presence of peptides (10mcM) or anti-CD28 (10 mcg/mL) after 48 h of incubation, with or without 0.1 mcg/mL anti-CD3, was determined. The data were analyzed by MSD (FIG. 14).
Human T cells were activated with ImmunoCult™ Human CD3/CD28 T Cell Activator in the presence of peptides (10mcM) and cytokine secretion was analyzed after 48 hours of incubation by MSD. […] Activation with anti-CD3 on both isolated T cells and PBMCs was required for SG-3-0020-mediated effects.

[4] = system: CT26 tumor-bearing Balb/c mice; assay: Tumor infiltrating lymphocyte composition/activation in CT26 tumor-bearing Balb/c mice (Examples 3 and 9); assay type: in vivo, mouse
Experimental: In vivo studies were performed to study the effects of SG-3-0020 administration on, e.g., immune cell activation and tumor size and to test different routes of administration of SG-3-0020 in CT26 tumor-bearing Balb/c mice and its effects on immune modulation. This mouse model is one of the most widely used mouse models for preclinical testing of new immunotherapeutic drugs (Grosso and Jure-Kunkel, 2013, Cancer Immun, 13:5).
Mice were dosed i.v., i.p., p.t. with SG-3-0020 or PBS. For comparison mice were dosed with CD80-Fc or IgG1-Fc i.v. On Day 7, tumor samples were analyzed for tumor infiltrating lymphocyte (TIL) composition/activation by flow cytometry. The protocol used in this experiment is illustrated in FIG. 7A.
BALB/c male mice (n=5-6/group, 8 weeks of age) were inoculated s.c. with CT26 colon carcinoma cells. SG-B was administered in PBS peritumorally daily at 2.5 mg/kg. Control mice were injected with the corresponding volume of PBS. At Day 13 (AH1 staining)) or Day 7 (Ki67, CD25, OX40 staining) excised tumors were washed with PBS, dissected into smaller fragments using scalpels, and further dissociated into single cell suspensions using the Miltenyi Tumor Dissociation Kit and the GentleMACS Octo dissociator. The digested tumors were filtered through pre-separation filters, washed with PBS, and then used for flow cytometry-based analysis. T lymphocytes were gated as CD4^+ or CD8^+ and then analyzed for surface marker expression by FlowJo 10.5.3. p values calculated by Mann-Whitney test.

human T cells [5] = assay: Phage binding to T cells, titers of eluted phages (Example 7)
Experimental: The binding of SG-3-0020 phages to target cells (naïve T-cell, activated T-cell) was tested.
Biotinylated peptide stock (1 mM) was diluted to 1 uM (×1,000-fold) with 1×PBS+2% BSA. 150 mcL of phages (multivalent display) were mixed with 70 mcL of 1×PBS+2% BSA. The solution was rotated at room temperature for 1 hour.
The cells, either naïve T-cells (about 13×10^6 cells) or activated T-cells (about 16×10^6 cells) were thawed. The cells were then centrifuged at 1,500 for 5 min at 4° C., and the supernatant was aspirated. The cell pellets were washed with 5 mL of 1×PBS+2% BSA by pipetting. This was repeated such that the pellets were centrifuged and washed a total of 3 times.
The cell pellets were resuspended with 1050 mcL of 1×PBS+2% BSA, and 100 mcL of phage (M13 bacteriophage G8P capsid antibody-FITC from antibodies-online Inc (Cat #: ABIN 125966)) were added into a well of 96-well plates (phage binding). 150 mcL of diluted biotinylated peptide were added into a well of 96-well plates (biotinylated peptide binding). 100 mcL of resuspended cells were added into the wells for phage binding and 50 mcL of resuspended cells were added into the wells for biotinylated peptide binding.
The cells were put on the rocker and incubated at 4° C. for 2 hours for binding and then centrifuged at 1,500 for 5 min at 4° C. The supernatant was discarded. […]

[6] = system: Splenocytes isolated from naive male C57BL/6 mice; assay: Stimulation of murine naïve splenocytes (Example 1); assay type: cell-based, mouse; settings: 10 μM peptide
Excerpt: This example describes an initial screening assay to identify Bifidobacterium-derived peptides which can activate effector T cells, specifically, CD4 effector T cells which are characterized in part by a CD4^+ CD25^+ FoxP3^− phenotype and CD8 effector cells which are characterized in part by a CD8^+ CD25^+ FoxP3^− phenotype. Splenocytes isolated from naive male C57BL/6 mice (Taconic, 8-14 weeks of age) were resuspended in complete RPMI (RPMI containing 10% FBS plus 1% penicillin/streptomycin) to a final number of 8×10^5 cells/well in a flat-bottom 96-well plate. Cells were then stimulated with 0.05 μg/ml anti-CD3 antibody in the presence of: each peptide (10 μM in water) or ovalbumin peptide amino acids 323-339 (10 μM in water), water (Th0 min H2O), anti-CD3 antibody alone (Th0 min), or with 1 μg/ml anti-CD3, plus IL-12 (10 ng/ml), plus 5 μg/ml anti-IL-4 antibody (positive control to generate Th1 cells). Cells were incubated at 37° C., 5% CO2 for 48 h. See. FIG. 2A, FIG. 2B, and FIG. 2C.
Levels of activated (Tact) CD4 (FIG. 2A) and CD8 (FIG. 2B) T cells, defined by absence of FoxP3 and high CD25 expression, were determined by multicolor flow cytometry. Levels of T cells were then normalized to levels of the T cells when the splenocytes were treated with the OV323-339 negative control peptide. See Levels of IL-2 (FIG. 2C) and IL-17 (FIG. 2D) in culture supernatants were quantified by Luminex analysis. Levels of Granzyme B expression on gated CD8 FoxP3^− T cells were analyzed by flow cytometry. Bars represent mean±SD. (vs. Th0+H2O) by Kruskall-Wallis with uncorrected Dunn's test.
A dose response study was also performed using the above methods wherein naïve mouse splenocytes were treated with increasing doses of SG-3-0020 (1 μM, 5 μM, or 10 μM). Flow cytometry analysis was done to measure frequency of effector CD8 T cells (CD8^+, CD25^+, FoxP3), granzyme B expression on the effector CD8 T cells, and IL-2 expression.

CT26 mouse model = assay: CT26 mouse model, tumor volume, monotherapy; assay type: in vivo; settings: preliminary results, data not shown
PBMCs = assay: Activation marker expression with or without anti-CD3, PBMCs (Example 5); assay type: cell-based, human; settings: 10 mcM, with or without 0.1 mcg/mL anti-CD3, 48 hours
Experimental: as §1

[7] = anti-CD3 stimulated purified T cells
[8] = anti-CD3 stimulated purified T cells, 5 donors
[9] = vs activated T cells without SG-3-0020, data not shown
[10] = peri-tumoral injections twice daily (b.i.d.)
[11] = 0.05 μg/ml anti-CD3, 48 h, flow cytometry

SG-3-0020: Bifidobacterium breve-derived peptide, SEQ ID NO:1 MLSTKKTKTHDHYPCGRMRDPGWHDWRACLTHQGIEEDEWPV, chemically synthesized for the Examples (Bifidobacterium breve)
CD96 expression (activated human T cell): decrease
CTSL expression (activated human T cell): increase
CXCL10 expression (activated human T cell): decrease
CXCR6 expression (activated human T cell): decrease
DUSP6 expression (activated human T cell): increase
GZMK expression (activated human T cell): decrease
IL-2 expression (activated human T cell): increase
IL-3 expression (activated human T cell): increase
IL-9 expression (activated human T cell): increase
IL-10 expression (activated human T cell): increase
IL-21 expression (activated human T cell): increase
IL-24 expression (activated human T cell): increase
IRF1 expression (activated human T cell): decrease
ISG20 expression (activated human T cell): decrease
LY9 expression (activated human T cell): decrease
SLAMF7 expression (activated human T cell): decrease
SMAD3 expression (activated human T cell): decrease
STAT1 expression (activated human T cell): decrease
TCF7 expression (activated human T cell): decrease
secretion of effector cytokines ([1]; MSD): increased
expression of T cell activation markers ([1]; flow cytometry): increased
proliferation of CD4 and CD8 T cells ([1]; flow cytometry): increased
IFN-γ secretion (human T cells [2]; [7]): increased
IL-2 secretion (human T cells [2]; [7]): increased
IL-10 secretion (human T cells [2]; [7]): increase
TNF-α secretion (human T cells [2]; [7]): increase
PD-1 expression on CD4+ cells (human T cells [2]; [8]): increased
PD-1 expression on CD8+ cells (human T cells [2]; [8]): increased
cytokine-stimulating activity, donors responding (human T cells [2]; purified T cell system in the presence of anti-CD3 antibody): 5/5
CD4+CD25+ T cells (human T cells [2]; [9]): increase
CD4+ICOS+ T cells (human T cells [2]; [9]): increase
CD4+OX40+ T cells (human T cells [2]; [9]): increase
CD8+ICOS+ T cells (human T cells [2]; [9]): increase
CD8+OX40+ T cells (human T cells [2]; [9]): increase
CD8CD25+ T cells (human T cells [2]; [9]): increase
dependence of SG-3-0020-mediated effects on activation with anti-CD3, isolated T cells (human T cells [3]; 10 mcM, with or without 0.1 mcg/mL anti-CD3, 48 hours): required
cytokine secretion in combination with anti-CD28 activation (human T cells [3]; ImmunoCult Human CD3/CD28 T Cell Activator, 10 mcM peptide, 48 hours, MSD): increases activity
CD8+CD25+ cells in tumor infiltrating lymphocytes ([4]; Day 7, flow cytometry): increase
CD8+Ki67+ cells in tumor infiltrating lymphocytes ([4]; Day 7, flow cytometry): increase
CD8+OX40+ cells in tumor infiltrating lymphocytes ([4]; Day 7, flow cytometry): increase
NK cells in tumor infiltrating lymphocytes ([4]; Day 7, flow cytometry): increase
Tetramer staining (AH1 epitope) ([4]; Day 13): positive effect
activated CD8+ T cell frequency within the TIL compartment ([4]; mouse, in vivo): increases
NK cell frequency in the TIL compartment [4, 10]: increase
activated CD8+ T cell frequency in the TIL compartment [4, 10]: increase
binding to human T cells (human T cells [5]; FIG. 17, phage titer): binds
phage titer, binding to the activated T-cells compared to empty phages (human T cells [5]; multivalent display phage, 4° C., 2 hours): more bound
frequency of activated (Tact) CD4 T cells (CD25+/FoxP3-) [6, 11]: increase; also recorded: enhance
frequency of activated (Tact) CD8 T cells (CD25+/FoxP3-) [6, 11]: increase; also recorded: enhance
IL-2 secretion in culture supernatants ([6]; 48 h, Luminex): facilitate
IL-17 secretion in culture supernatants ([6]; 48 h, Luminex): facilitate
Granzyme B expression in CD8 T cells ([6]; 48 h, flow cytometry): promote induction
tumor volume (CT26 mouse model): decrease
dependence of SG-3-0020-mediated effects on activation with anti-CD3, PBMCs (PBMCs): required
